{"source": "patent US6395780B1", "about": "“Cleavage system inhibitors as potential antipsychotics” (Merck Patent GmbH, priority 1999, dated 2002)", "key": {"[1]": {"tested_on": "PCP-induced hyperlocomotion", "test": "PCP-induced hyperlocomotion model", "assay_type": "in vivo", "experimental": "For the PCP-induced hyperlocomotion model we use a test apparatus consisting of a clear plexiglass box (45 cm×45 cm) equipped with two series of equally spaced infrared beam lights controlling X-Y axes and connected to a microcomputer. Measured automatically are the distance (way) traveled [m], and the time spent with locomotion or resting [sec] in intervals of 30 min over a total of 90 minutes following PCP administration. […] PCP at the indicated dose induces excessive locomotor behavior with an increase of about 200-250% measured by either locomotion distance or time compared to control animals."}, "[2]": {"tested_on": "PCP-induced disruption of PPI", "test": "PCP-induced disruption of prepulse inhibition (PPI)", "assay_type": "in vivo, rats", "source_text": "For the PCP-induced disruption of PPI we use a commercially available standard equipment (Coulbourn Instruments, USA) consisting of a sound attenuated test box equipped with a startle response measuring unit connected to a microcomputer; a white noise generator applies a constant level of back ground noise during the experiment. After a habituation period, a series of 70 combinations of prepulses (no prepulse or […] above back ground noise) and pulses (90 to 126 dB) is randomly applied to the rats. […] In control animals, presentation of the prepulse inhibits the startle response elicited by the pulse alone. PCP at the indicated doses induces a disruption of PPI by a maximum of about 70% compared to control animals. The doses indicated above are used for valproate and cysteamine, administered before the PCP challenge."}, "[3]": {"tested_on": "apomorphine-induced climbing behavior", "test": "apomorphine-induced climbing test in mice", "assay_type": "in vivo", "conditions": "for inhibition of apomorphine-induced climbing behavior: apomorphine 1.25 mg/kg subcutaneously", "source_text": "Although the complex interaction of glycine with the neurotransmitter dopamine is not yet fully understood, the counterbalancing effects (symmetric bilateral changes) of glycine and dopamine, at least in part via GABAergic and cholinergic interneurons, in the central nervous system are well known for long ([…] et al., 1978; Giorguieff et al., 1979; […] et al., 1979; Schmidt and […] et al., 1998). Dopamine antagonists are the classic antischizophrenic drugs, and conventional animal models to test for antischizophrenic drugs with a dopaminergic mechanism of action use the induction of stereotyped behaviours such as climbing behavior in mice by the application of dopamine-agonistic drugs such as apomorphine (Protais et al., 1976; Puech et al., 1978). […] Therefore the model compound cysteamine at the doses indicated before are investigated in the climbing test in mice, too."}, "glycine levels": {"tested_on": "glycine levels", "conditions": "i.p. 250 mg/kg in 8 day old rats (Iwama 1997); cited from earlier work"}, "[4]": {"tested_on": "negative symptoms in schizophrenic patients", "conditions": "cited from earlier work"}, "[5]": {"tested_on": "hyperlocomotion induced by PCP or related drugs", "conditions": "PCP or related drugs as challenge stimulants, rodents; cited from earlier work"}, "[6]": {"molecular_target": "T1, Glycine Cleavage System (GCS) (Homo sapiens, UniProt P09622+P23378+P23434+P48728)", "T1 sequence (P23378 36-1020)": "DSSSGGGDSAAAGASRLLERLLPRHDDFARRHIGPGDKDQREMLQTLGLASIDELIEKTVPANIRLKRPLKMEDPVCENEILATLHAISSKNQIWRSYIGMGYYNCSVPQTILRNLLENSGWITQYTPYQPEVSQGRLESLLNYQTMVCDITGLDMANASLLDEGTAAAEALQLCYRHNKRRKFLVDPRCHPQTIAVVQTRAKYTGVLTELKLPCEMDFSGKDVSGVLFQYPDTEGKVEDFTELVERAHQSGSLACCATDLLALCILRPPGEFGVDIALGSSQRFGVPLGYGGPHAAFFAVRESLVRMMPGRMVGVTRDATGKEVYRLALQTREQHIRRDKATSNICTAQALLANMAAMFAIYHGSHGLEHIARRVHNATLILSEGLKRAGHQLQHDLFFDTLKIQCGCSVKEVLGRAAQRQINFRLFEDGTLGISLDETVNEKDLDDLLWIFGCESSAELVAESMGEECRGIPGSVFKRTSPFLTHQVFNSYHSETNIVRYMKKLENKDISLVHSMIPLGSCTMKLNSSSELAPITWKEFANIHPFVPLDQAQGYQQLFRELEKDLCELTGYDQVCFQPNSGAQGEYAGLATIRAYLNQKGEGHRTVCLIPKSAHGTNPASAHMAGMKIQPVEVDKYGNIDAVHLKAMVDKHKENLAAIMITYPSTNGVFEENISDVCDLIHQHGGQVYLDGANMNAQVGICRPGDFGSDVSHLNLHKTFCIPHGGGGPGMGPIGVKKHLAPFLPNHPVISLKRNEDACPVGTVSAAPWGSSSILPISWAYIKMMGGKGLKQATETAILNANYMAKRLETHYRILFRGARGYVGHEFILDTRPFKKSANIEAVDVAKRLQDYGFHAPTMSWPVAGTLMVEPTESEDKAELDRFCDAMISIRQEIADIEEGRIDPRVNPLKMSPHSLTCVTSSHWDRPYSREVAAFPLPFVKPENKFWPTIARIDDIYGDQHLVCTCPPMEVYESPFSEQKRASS", "T1 sequence (P48728 29-403)": "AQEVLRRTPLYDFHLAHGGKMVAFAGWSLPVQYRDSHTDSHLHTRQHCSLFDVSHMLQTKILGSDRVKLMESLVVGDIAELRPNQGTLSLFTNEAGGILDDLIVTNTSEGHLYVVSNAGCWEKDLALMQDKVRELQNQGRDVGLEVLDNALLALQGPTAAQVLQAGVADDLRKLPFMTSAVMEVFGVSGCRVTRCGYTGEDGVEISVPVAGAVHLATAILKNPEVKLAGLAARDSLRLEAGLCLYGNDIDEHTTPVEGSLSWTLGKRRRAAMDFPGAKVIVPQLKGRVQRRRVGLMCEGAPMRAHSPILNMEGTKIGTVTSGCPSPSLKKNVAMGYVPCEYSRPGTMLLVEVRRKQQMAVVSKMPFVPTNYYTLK", "T1 sequence (P23434 49-173)": "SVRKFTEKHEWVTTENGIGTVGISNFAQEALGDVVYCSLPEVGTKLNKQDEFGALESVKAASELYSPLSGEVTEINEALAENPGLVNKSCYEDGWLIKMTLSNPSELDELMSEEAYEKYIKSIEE", "T1 sequence (P09622 36-509)": "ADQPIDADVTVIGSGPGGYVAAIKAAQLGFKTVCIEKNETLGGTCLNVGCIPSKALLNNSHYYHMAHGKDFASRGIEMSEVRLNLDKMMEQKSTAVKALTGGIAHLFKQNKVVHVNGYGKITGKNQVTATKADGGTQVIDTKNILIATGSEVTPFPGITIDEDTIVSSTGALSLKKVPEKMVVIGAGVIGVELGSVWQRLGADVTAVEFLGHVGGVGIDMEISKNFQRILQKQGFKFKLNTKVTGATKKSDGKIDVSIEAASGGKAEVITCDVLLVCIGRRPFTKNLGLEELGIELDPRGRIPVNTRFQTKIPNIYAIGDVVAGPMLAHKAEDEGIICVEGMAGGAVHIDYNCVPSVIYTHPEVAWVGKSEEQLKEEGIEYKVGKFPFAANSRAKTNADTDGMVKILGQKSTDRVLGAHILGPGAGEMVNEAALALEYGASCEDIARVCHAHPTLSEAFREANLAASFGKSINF", "conditions": "liver mitochondria; read-out: Ki for GCS inhibition; cited from earlier work"}, "[7]": {"molecular_target": "T1, Glycine Cleavage System (GCS)", "conditions": "brain mitochondria; read-out: Ki for GCS inhibition; cited from earlier work"}, "[8]": {"molecular_target": "T1, Glycine Cleavage System (GCS)", "conditions": "Benavides 1983; cited from earlier work"}, "negative symptoms": {"tested_on": "negative symptoms", "conditions": "cited from earlier work"}}, "note": "pKi: −log10 of the molar value. Entries after “also recorded” stand apart in the source; their conditions may differ. Where two headings read alike, the source gives them in different places.", "data": [{"compound": "NCCS", "note": "[Cysteamine]", "values": [{"measurement": "effect on PCP-induced hyperlocomotion", "setting": "[1]; 100 to 500 mg/kg parenterally before PCP 5 mg/kg i.p., distance traveled and locomotion time over 90 min", "result": "reduction of PCP-induced hyperlocomotion; also recorded: reduce PCP-induced hyperlocomotion"}, {"measurement": "effect on PCP-induced disruption of PPI", "setting": "[2]; 100 to 500 mg/kg parenterally before PCP 1-5 mg/kg s.c., different prepulse/pulse combinations", "result": "reverse PCP-induced disruption of PPI"}, {"measurement": "ED50", "setting": "[3]; Mus musculus, given prior to the apomorphine challenge, read-out: ED50 (dose which inhibits apomorphine-induced climbing by 50%)", "result": 500, "unit": "mg/kg"}, {"measurement": "glycine in the cortex, % of control animals", "setting": "glycine levels", "result": 360, "unit": "%"}]}, {"compound": "N[C@@H]1CONC1=O", "note": "[D-cycloserine]", "values": [{"measurement": "inhibition of apomorphine-induced climbing behavior", "setting": "[3]", "result": "inhibited"}, {"measurement": "negative symptoms", "setting": "[4]; 50 mg/d along with effective dose of antipsychotics, double blind, placebo-controlled (Goff 1999)", "result": "improvement in negative symptoms"}, {"measurement": "negative symptoms in schizophrenic patients", "setting": "[4]; 50 mg/d, trial assessing 15 to 250 mg/d (Goff 1995)", "result": "reduced negative symptoms"}, {"measurement": "efficacy in the hyperlocomotion model", "setting": "[5]", "result": "repeatedly demonstrated"}]}, {"compound": "CCCCCCCCCCCCNC(=O)CN", "note": "[GDA, glycyldodecylamide]", "values": [{"measurement": "inhibition of apomorphine-induced climbing behavior", "setting": "[3]", "result": "inhibited"}, {"measurement": "efficacy in the hyperlocomotion model", "setting": "[5]", "result": "repeatedly demonstrated"}]}, {"compound": "c1ccc(C2(N3CCCCC3)CCCCC2)cc1", "note": "[PCP, phencyclidine]", "values": [{"measurement": "increase of locomotor behavior (distance or time) compared to control animals", "setting": "[1]; PCP 5 mg/kg intraperitoneally", "result": "200-250%"}, {"measurement": "disruption of PPI compared to control animals (maximum)", "setting": "[2]; PCP 1-5 mg/kg subcutaneously", "result": "about 70%"}]}, {"compound": "N[C@@H]1CCN(O)C1=O", "note": "[R-(+)-HA-966, R-(+)-3-amino-1-hydroxypyrrolid-2-one]", "values": [{"measurement": "efficacy in the hyperlocomotion model", "setting": "[5]", "result": "repeatedly demonstrated"}]}, {"compound": "CCCC(CCC)C(=O)O", "note": "[Valproate]", "values": [{"measurement": "pKi", "setting": "[6]", "result": 3.23}, {"measurement": "pKi", "setting": "[7]", "result": 2.70}]}, {"compound": "N#CCN", "note": "[aminoacetonitrile]", "values": [{"measurement": "GCS inhibition (in words)", "setting": "[8]", "result": "weak inhibitors"}]}, {"compound": "NCC(=O)O", "note": "[glycine]", "values": [{"measurement": "side effects", "setting": "negative symptoms; 0.4 g/kg and 0.8 g/kg glycine orally along with usual antipsychotic medication", "result": "No changes"}, {"measurement": "amelioration of negative symptoms", "setting": "negative symptoms; 0.4 g/kg glycine orally along with usual antipsychotic medication", "result": 15, "unit": "%"}, {"measurement": "amelioration of negative symptoms", "setting": "negative symptoms; 0.8 g/kg glycine orally along with usual antipsychotic medication", "result": 30, "unit": "%"}, {"measurement": "efficacy in the hyperlocomotion model", "setting": "[5]", "result": "repeatedly demonstrated"}]}, {"compound": "C#CCN", "note": "[propargylamine]", "values": [{"measurement": "GCS inhibition (in words)", "setting": "[8]", "result": "weak inhibitors"}]}]}
